These results are taken from PubChem BioAssay AID270 (DTP/NCI, 2004).

The assay has as its system BDF1 mice, s.c. Lewis lung carcinoma, T/C %. Briefly: NCI In Vivo Anticancer Drug Screen. Data for tumor model Lewis Lung Carcinoma (subcutaneous) in B6D2F1 (BDF1) mice. The gist of the method: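 Antitumor effect in vivo is scored from survival or tumor burden, reported as treated relative to vehicle controls.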
Setting [1] is: endpoint: mean tumor weight, dose: 50.0 mg/kg/injection, schedule: Q01DX011 (ip), vehicle: other, higher = larger tumour.
Where [2] appears, read: endpoint: mean tumor weight, dose: 100.0 mg/kg/injection, schedule: Q01DX011 (ip), vehicle: other, higher = larger tumour.
The mark [3] stands for this setting: endpoint: mean tumor weight, dose: 200.0 mg/kg/injection, schedule: Q01DX011 (ip), vehicle: saline, higher = larger tumour.
Setting [4] is: endpoint: mean tumor weight, dose: 50.0 mg/kg/injection, schedule: Q01DX011 (sc), vehicle: steriod suspending solution, higher = larger tumour.
Setting [5] is: endpoint: mean tumor weight, dose: 100.0 mg/kg/injection, schedule: Q01DX011 (sc), vehicle: steriod suspending solution, higher = larger tumour.

“And” between values parts separate entries of the source, which are not always exact repeats. Equal values may be shown once. Inconclusive results are not listed.

For `CC(=O)[C@H]1CC[C@H]2[C@@H]3CC[C@@H]4CC(=O)CC[C@]4(C)[C@H]3[C@@H]3O[C@@H]3[C@]12C`, the T/C (endpoint: mean tumor weight, dose: 37.0 mg/kg/injection, schedule: Q01DX011 (ip), vehicle: other, higher = larger tumour) was 150 % of control; the T/C (endpoint: mean tumor weight, dose: 55.0 mg/kg/injection, schedule: Q01DX011 (ip), vehicle: other, higher = larger tumour) is 99 % of control; the T/C (endpoint: mean tumor weight, dose: 83.0 mg/kg/injection, schedule: Q01DX011 (ip), vehicle: other, higher = larger tumour) is 108 % of control; the T/C (endpoint: mean tumor weight, dose: 250.0 mg/kg/injection, schedule: Q01DX011 (ip), vehicle: other, higher = larger tumour) is 122 % of control.
For the compound `Cc1ccc(N2CCN(CCCN3CCN(c4ccc(Cl)cc4)CC3)CC2)cc1`, the T/C (endpoint: mean tumor weight, dose: 12.5 mg/kg/injection, schedule: Q01DX011 (ip), vehicle: other, higher = larger tumour) was 66 % of control; the T/C (endpoint: mean tumor weight, dose: 25.0 mg/kg/injection, schedule: Q01DX011 (ip), vehicle: other, higher = larger tumour) is 108 % of control; the T/C under setting [1] was 70 % of control; the T/C under setting [2] is 50 % of control.
For the compound `Cc1ccnc(NS(=O)(=O)c2ccc(N=Nc3nc4[nH]c(N)nc(=S)c4[nH]3)cc2)n1`, the T/C is 106 % of control (endpoint: median survival time, dose: 0.19 mg/kg/injection, schedule: Q01DX009 (ip), vehicle: Klucel (hydroxypropylcellulose) (HPC), higher = longer survival); 94 % of control (endpoint: median survival time, dose: 0.39 mg/kg/injection, schedule: Q01DX009 (ip), vehicle: Klucel (hydroxypropylcellulose) (HPC), higher = longer survival); 97 % of control (endpoint: median survival time, dose: 0.78 mg/kg/injection, schedule: Q01DX009 (ip), vehicle: Klucel (hydroxypropylcellulose) (HPC), higher = longer survival); 87 % of control and 103 % of control (endpoint: median survival time, dose: 1.56 mg/kg/injection, schedule: Q01DX009 (ip), vehicle: Klucel (hydroxypropylcellulose) (HPC), higher = longer survival).
Regarding `CC(/C=N/N=C(N)N)=N\N=C(N)N`, the T/C (endpoint: mean tumor weight, dose: 15.0 mg/kg/injection, schedule: Q01DX011 (ip), vehicle: saline, higher = larger tumour) was 119 % of control; the T/C (endpoint: mean tumor weight, dose: 30.0 mg/kg/injection, schedule: Q01DX011 (ip), vehicle: saline, higher = larger tumour) is 88 % of control; the T/C (endpoint: mean tumor weight, dose: 60.0 mg/kg/injection, schedule: Q01DX011 (ip), vehicle: saline, higher = larger tumour) is 46 % of control.
With `CN(N=O)C(=O)N[C@@H](C=O)[C@@H](O)[C@H](O)[C@H](O)CO`, the T/C is, setting by setting: (endpoint: mean tumor weight (est.), dose: 20.0 mg/kg/injection, schedule: Q01DX009 (ip), vehicle: water, higher = larger tumour) 93 % of control; (endpoint: mean tumor weight (est.), dose: 40.0 mg/kg/injection, schedule: Q01DX009 (ip), vehicle: water, higher = larger tumour) 65 % of control; (endpoint: mean tumor weight (est.), dose: 80.0 mg/kg/injection, schedule: Q01DX009 (ip), vehicle: water, higher = larger tumour) 42 % of control; (endpoint: median survival time, dose: 20.0 mg/kg/injection, schedule: Q01DX009 (ip), vehicle: water, higher = longer survival) 115 % of control; (endpoint: median survival time, dose: 40.0 mg/kg/injection, schedule: Q01DX001 (ip), vehicle: other, higher = longer survival) 99 % of control and 105 % of control; (endpoint: median survival time, dose: 40.0 mg/kg/injection, schedule: Q01DX001 (ip), vehicle: saline, higher = longer survival) 86 % of control. In addition, the T/C (endpoint: median survival time, dose: 40.0 mg/kg/injection, schedule: Q01DX009 (ip), vehicle: water, higher = longer survival) is 94 % of control; the T/C (endpoint: median survival time, dose: 80.0 mg/kg/injection, schedule: Q01DX001 (ip), vehicle: other, higher = longer survival) is 90 % of control and 108 % of control; the T/C (endpoint: median survival time, dose: 80.0 mg/kg/injection, schedule: Q01DX001 (ip), vehicle: saline, higher = longer survival) was 94 % of control; the T/C (endpoint: median survival time, dose: 160.0 mg/kg/injection, schedule: Q01DX001 (ip), vehicle: other, higher = longer survival) was 98 % of control and 111 % of control; the T/C (endpoint: median survival time, dose: 160.0 mg/kg/injection, schedule: Q01DX001 (ip), vehicle: saline, higher = longer survival) was 108 % of control; the T/C (endpoint: median survival time, dose: 320.0 mg/kg/injection, schedule: Q01DX001 (ip), vehicle: other, higher = longer survival) is 99 % of control. Further, where the note is “endpoint: median survival time, dose: 320.0 mg/kg/injection, schedule: Q01DX001 (ip), vehicle: saline, higher = longer survival”, the T/C was 91 % of control.
Take `O=CNCCO`: the T/C reads like this: (endpoint: mean tumor weight, dose: 133.0 mg/kg/injection, schedule: Q01DX011 (ip), vehicle: saline, higher = larger tumour) 69 % of control; under setting [3], 79 % of control; (endpoint: mean tumor weight, dose: 300.0 mg/kg/injection, schedule: Q01DX011 (ip), vehicle: saline, higher = larger tumour) 48 % of control; (endpoint: mean tumor weight, dose: 450.0 mg/kg/injection, schedule: Q01DX011 (ip), vehicle: saline, higher = larger tumour) 54 % of control; (endpoint: mean tumor weight, dose: 750.0 mg/kg/injection, schedule: Q01DX011 (ip), vehicle: saline, higher = larger tumour) 81 % of control.
Consider `CCCN(/C=C/C=C/C=[N+](CCC)CCC)CCC`, for which the T/C is, setting by setting: (endpoint: median survival time, dose: 0.03 mg/kg/injection, schedule: Q01DX009 (ip), vehicle: saline, higher = longer survival) 114 % of control; (endpoint: median survival time, dose: 0.05 mg/kg/injection, schedule: Q01DX009 (ip), vehicle: saline, higher = longer survival) 100 % of control; (endpoint: median survival time, dose: 0.1 mg/kg/injection, schedule: Q01DX009 (ip), vehicle: saline, higher = longer survival) 115 % of control; (endpoint: median survival time, dose: 0.2 mg/kg/injection, schedule: Q01DX009 (ip), vehicle: saline, higher = longer survival) 108 % of control.
Turning to `CC1C/C=C2\CSC(NC(=O)/C3=C\N(C/C=C/C=C/C(O)CC(O)CC(=O)N3)C2=O)C(=O)O1` (stereo not given), the T/C was 88 % of control (endpoint: mean tumor weight, dose: 10.6 mg/kg/injection, schedule: Q01DX011 (ip), vehicle: carboxymethylcellulose (CMC), higher = larger tumour); 169 % of control (endpoint: mean tumor weight, dose: 16.0 mg/kg/injection, schedule: Q01DX011 (ip), vehicle: carboxymethylcellulose (CMC), higher = larger tumour); 68 % of control (endpoint: mean tumor weight, dose: 24.0 mg/kg/injection, schedule: Q01DX011 (ip), vehicle: carboxymethylcellulose (CMC), higher = larger tumour); 114 % of control (endpoint: mean tumor weight, dose: 36.0 mg/kg/injection, schedule: Q01DX011 (ip), vehicle: carboxymethylcellulose (CMC), higher = larger tumour).
For the compound `O=c1cc(-c2ccc(O)cc2)oc2c(O)c(O)c(O)c(O)c12`, the T/C is 70 % of control (endpoint: mean tumor weight, dose: 50.0 mg/kg/injection, schedule: Q01DX011 (ip), vehicle: saline, higher = larger tumour); 73 % of control (endpoint: mean tumor weight, dose: 100.0 mg/kg/injection, schedule: Q01DX011 (ip), vehicle: saline, higher = larger tumour); 43 % of control under setting [3].
Take `COc1c(OC)c(OC)c(-c2cc(=O)c3c(OC)c(OC)c(OC)c(OC)c3o2)c(OC)c1OC`: the T/C by setting is: under setting [4], 97 % of control; under setting [5], 105 % of control; (endpoint: mean tumor weight, dose: 200.0 mg/kg/injection, schedule: Q01DX011 (sc), vehicle: steriod suspending solution, higher = larger tumour) 97 % of control; (endpoint: mean tumor weight, dose: 400.0 mg/kg/injection, schedule: Q01DX011 (sc), vehicle: steriod suspending solution, higher = larger tumour) 83 % of control.
As for `COC(=O)C(N)CCCCNc1ccc2c(cc1=O)C(NC(C)=O)CCc1cc(OC)c(OC)c(OC)c1-2` (stereo not given), the T/C reads like this: (endpoint: median survival time, dose: 25.0 mg/kg/injection, schedule: Q02DX009 (ip), vehicle: saline with Tween-80, higher = longer survival) 100 % of control; (endpoint: median survival time, dose: 50.0 mg/kg/injection, schedule: Q02DX009 (ip), vehicle: saline with Tween-80, higher = longer survival) 94 % of control.
`Nc1ncnc2c1ncn2C1CCCO1` (stereo not given): the T/C was 75 % of control under setting [1]; 56 % of control under setting [2]; 37 % of control (endpoint: mean tumor weight, dose: 200.0 mg/kg/injection, schedule: Q01DX011 (ip), vehicle: other, higher = larger tumour).
With `O=c1[nH]cnc2n[nH]nc12`, the T/C (endpoint: mean tumor weight, dose: 49.0 mg/kg/injection, schedule: Q01DX011 (ip), vehicle: other, higher = larger tumour) was 76 % of control; the T/C (endpoint: mean tumor weight, dose: 98.0 mg/kg/injection, schedule: Q01DX011 (ip), vehicle: other, higher = larger tumour) was 64 % of control; the T/C (endpoint: mean tumor weight, dose: 147.0 mg/kg/injection, schedule: Q01DX011 (ip), vehicle: other, higher = larger tumour) was 55 % of control; the T/C (endpoint: mean tumor weight, dose: 220.0 mg/kg/injection, schedule: Q01DX011 (ip), vehicle: other, higher = larger tumour) was 67 % of control.
With `CC/C(=C(/CC)c1ccc(O)cc1)c1ccc(O)cc1`, the T/C (endpoint: mean tumor weight, dose: 12.5 mg/kg/injection, schedule: Q01DX011 (sc), vehicle: steriod suspending solution, higher = larger tumour) was 38 % of control; the T/C (endpoint: mean tumor weight, dose: 25.0 mg/kg/injection, schedule: Q01DX011 (sc), vehicle: steriod suspending solution, higher = larger tumour) was 28 % of control; the T/C under setting [4] was 17 % of control; the T/C under setting [5] is 21 % of control; the T/C (endpoint: median survival time, dose: 25.0 mg/kg/injection, schedule: Q01DX009 (ip), vehicle: Klucel (hydroxypropylcellulose) (HPC), higher = longer survival) was 120 % of control; the T/C (endpoint: median survival time, dose: 50.0 mg/kg/injection, schedule: Q01DX009 (ip), vehicle: Klucel (hydroxypropylcellulose) (HPC), higher = longer survival) is 106 % of control. The T/C runs as follows: (endpoint: median survival time, dose: 100.0 mg/kg/injection, schedule: Q01DX009 (ip), vehicle: Klucel (hydroxypropylcellulose) (HPC), higher = longer survival) 113 % of control; (endpoint: median survival time, dose: 200.0 mg/kg/injection, schedule: Q01DX009 (ip), vehicle: Klucel (hydroxypropylcellulose) (HPC), higher = longer survival) 124 % of control.
